{"source": "patent US20090176817A1", "about": "“Method of Treatment of Diarrhea-Predominant Irritable Bowel Syndrome in a Subject” (priority 2005, published 2009)", "test_system": "diarrhea-predominant IBS subjects", "experiment": "Study S241.3.006: weekly diary questions on adequate relief", "format": "in vivo, human", "settings": "for Number of months a subject was a responder: One month (Abdominal pain/discomfort) / Number of months a subject was a responder: One month (Abnormal bowel habits) / Number of months a subject was a responder: One month (IBS symptoms) / Number of months a subject was a responder: Three months (Abdominal pain/discomfort) / Number of months a subject was a responder: Three months (Abnormal bowel habits) / Number of months a subject was a responder: Three months (IBS symptoms) / Number of months a subject was a responder: Two months (Abdominal pain/discomfort) / Number of months a subject was a responder: Two months (Abnormal bowel habits) / Number of months a subject was a responder: Two months (IBS symptoms) / Number of months a subject was a responder: Zero months (Abdominal pain/discomfort) / Number of months a subject was a responder: Zero months (Abnormal bowel habits) / Number of months a subject was a responder: Zero months (IBS symptoms): monthly LOCF", "method": "The study was conducted in 129 study centers in the United States. At total of 2080 subjects consented to participate, and 711 subjects were randomized. A total of 692 subjects were analyzed for efficacy and 701 subjects were analyzed for safety. Diagnosis and main criteria for inclusion were IBS subjects satisfying the Rome I criteria (1992); the diarrhea predominant sub-population of the Rome II criteria; and a minimum abdominal pain/discomfort, stool frequency and consistency determined during the run-in period. Subjects were treated with cilansetron 2 mg tablets given orally TID or matching placebo tablets given orally TID for 12 weeks double-blind treatment.\nThe primary efficacy parameter was the number of months that a subject was a responder for IBS symptoms (abdominal pain, abdominal discomfort, abnormal bowel habits) over the 12-week treatment period. A responder for a month (monthly responder) was defined as a subject who answered the weekly question with “yes” at least twice for that month.\nStudies S24 1.3.OO6, S24 1.3.0 1 1, and S24 1.3.009 used the following efficacy measurements: • The subjects answered the following three questions with “yes” or “no” using a phone diary at the end of each week: • a) During the last week, did you experience adequate relief of your IBS symptoms, such as abdominal pain, abdominal discomfort, abnormal bowel habits? • b) During the last week, did you experience adequate relief of your abdominal pain and/or discomfort? • c) During the last week, did you experience adequate relief of your abnormal bowel habits? • The subjects rated the following symptoms using the phone diary at the end of each day: • abdominal pain/discomfort (five-point scale); • stool consistency (seven-point Bristol Stool Scale); • stool frequency (number of bowel movements each day); • urgency (five-point scale); • straining (yes or no); • feeling of incomplete defecation (yes or no); • bloating or feeling of abdominal distension (five-point scale). • In Studies S241 A006 and S241.3.009, subjects completed the IBS-QOL Survey at Baseline (Day 1) and at the end of treatment. In Study S24 1.3.0 1 1, subjects completed the IBS-QOL Survey at Baseline (Day 1), at the end of the three-month treatment period, and at the end of rerandomized treatment.\nIn all three pivotal efficacy studies, the primary and main secondary efficacy parameters were based on the weekly diary questions on adequate relief and included the following: • 1. Number of months (one month equals four weeks) that a subject was a responder for the weekly diary questions on adequate relief. A responder for a month (monthly responder) was defined as a subject who answered the weekly question with “yes” at least twice for that month. For Studies S241.3.006 and S241.3.011, the primary efficacy parameter was the number of months that a subject was a responder for IBS symptoms during the 12-week treatment period. The two main secondary efficacy parameters were the number of months that a subject was a responder for abdominal pain/discomfort and abnormal bowel habits during the 12-week treatment period. For Study S241.3.009, the number of months that a subject was a responder for the weekly diary questions on adequate relief during Months 1 to 3 (the first 12 weeks) and Months 1 to 6 (24-week) was an additional key secondary efficacy parameter. • 2. Overall responder rate for the weekly diary questions on adequate relief. A responder was defined as a subject who answered the weekly question with “yes” for at least half of the answers available with a minimum of four weeks treatment duration. If a subject had less than four weeks treatment duration, the subject was considered a non-responder. The overall responder rate was the percentage of responders within a treatment group. For Study S241.3.009, the primary efficacy parameter was the overall responder rate for IBS symptoms during the 26-week treatment period. […]", "key": {"[1]": {"settings": "Duration of IBS: >24 months to ≦48 months, 2 mg TID, observed case, ITT"}, "[2]": {"settings": "Duration of IBS: >24 months to ≦48 months, three-month treatment period, ITT, 2 mg TID"}, "[3]": {"settings": "Duration of IBS: >48 months to ≦120 months, 2 mg TID, observed case, ITT"}, "[4]": {"settings": "Duration of IBS: >48 months to ≦120 months, three-month treatment period, ITT, 2 mg TID"}, "[5]": {"settings": "Duration of IBS: >120 months, 2 mg TID, observed case, ITT"}, "[6]": {"settings": "Duration of IBS: >120 months, three-month treatment period, ITT, 2 mg TID"}, "[7]": {"settings": "Duration of IBS: ≦24 months, 2 mg TID, observed case, ITT"}}}
{"smiles": "Cc1nccn1C[C@H]1CCc2c(c3cccc4c3n2CCC4)C1=O", "note": "[Cilansetron, (R)-(−)-4,5,6,8,9,10-hexahydro-10-[(2-methyl-1H-imidazol-1-yl)methyl]-11H-pyrido-[3,2,1-jk]-carbazol-11-one]", "values": [{"measurement": "Overall responder rate, adequate relief of abnormal bowel habits", "setting": "Baseline severity of IBS: severe, three-month treatment period, observed case, ITT, 2 mg TID", "value": "90 (46) n (%)"}, {"measurement": "Overall responder rate, abdominal pain/discomfort", "setting": "Caucasians", "value": 52, "unit": "%"}, {"measurement": "Number of subjects who were responders during the three-month treatment period: Adequate relief of IBS symptoms", "setting": "[1]", "value": "20 (47) n (%)"}, {"measurement": "Number of subjects who were responders during the three-month treatment period: Adequate relief of abdominal pain/discomfort", "setting": "[1]", "value": "22 (51) n (%)"}, {"measurement": "Number of subjects who were responders during the three-month treatment period: Adequate relief of abnormal bowel habits", "setting": "[1]", "value": "20 (47) n (%)"}, {"measurement": "Number of months a subject was a responder: One month (Abdominal pain/discomfort)", "setting": "[2]", "value": "8 (19) n (%)"}, {"measurement": "Number of months a subject was a responder: One month (Abnormal bowel habits)", "setting": "[2]", "value": "10 (23) n (%)"}, {"measurement": "Number of months a subject was a responder: One month (IBS symptoms)", "setting": "[2]", "value": "12 (28) n (%)"}, {"measurement": "Number of months a subject was a responder: Three months (Abdominal pain/discomfort)", "setting": "[2]", "value": "15 (35) n (%)"}, {"measurement": "Number of months a subject was a responder: Three months (Abnormal bowel habits)", "setting": "[2]", "value": "13 (30) n (%)"}, {"measurement": "Number of months a subject was a responder: Three months (IBS symptoms)", "setting": "[2]", "value": "14 (33) n (%)"}, {"measurement": "Number of months a subject was a responder: Two months (Abdominal pain/discomfort)", "setting": "[2]", "value": "6 (14) n (%)"}, {"measurement": "Number of months a subject was a responder: Two months (Abnormal bowel habits)", "setting": "[2]", "value": "7 (16) n (%)"}, {"measurement": "Number of months a subject was a responder: Two months (IBS symptoms)", "setting": "[2]", "value": "4 (9) n (%)"}, {"measurement": "Number of months a subject was a responder: Zero months (Abdominal pain/discomfort)", "setting": "[2]", "value": "14 (33) n (%)"}, {"measurement": "Number of months a subject was a responder: Zero months (Abnormal bowel habits)", "setting": "[2]", "value": "13 (30) n (%)"}, {"measurement": "Number of months a subject was a responder: Zero months (IBS symptoms)", "setting": "[2]", "value": "13 (30) n (%)"}, {"measurement": "Number of subjects who were responders during the three-month treatment period: Adequate relief of IBS symptoms", "setting": "[3]", "value": "54 (52) n (%)"}, {"measurement": "Number of subjects who were responders during the three-month treatment period: Adequate relief of abdominal pain/discomfort", "setting": "[3]", "value": "58 (56) n (%)"}, {"measurement": "Number of subjects who were responders during the three-month treatment period: Adequate relief of abnormal bowel habits", "setting": "[3]", "value": "54 (52) n (%)"}, {"measurement": "Number of months a subject was a responder: One month (Abdominal pain/discomfort)", "setting": "[4]", "value": "12 (12) n (%)"}, {"measurement": "Number of months a subject was a responder: One month (Abnormal bowel habits)", "setting": "[4]", "value": "12 (12) n (%)"}, {"measurement": "Number of months a subject was a responder: One month (IBS symptoms)", "setting": "[4]", "value": "15 (14) n (%)"}, {"measurement": "Number of months a subject was a responder: Three months (Abdominal pain/discomfort)", "setting": "[4]", "value": "40 (38) n (%)"}, {"measurement": "Number of months a subject was a responder: Three months (Abnormal bowel habits)", "setting": "[4]", "value": "37 (36) n (%)"}, {"measurement": "Number of months a subject was a responder: Three months (IBS symptoms)", "setting": "[4]", "value": "35 (34) n (%)"}, {"measurement": "Number of months a subject was a responder: Two months (Abdominal pain/discomfort)", "setting": "[4]", "value": "18 (17) n (%)"}, {"measurement": "Number of months a subject was a responder: Two months (Abnormal bowel habits)", "setting": "[4]", "value": "19 (18) n (%)"}, {"measurement": "Number of months a subject was a responder: Two months (IBS symptoms)", "setting": "[4]", "value": "19 (18) n (%)"}, {"measurement": "Number of months a subject was a responder: Zero months (Abdominal pain/discomfort)", "setting": "[4]", "value": "34 (33) n (%)"}, {"measurement": "Number of months a subject was a responder: Zero months (Abnormal bowel habits)", "setting": "[4]", "value": "36 (35) n (%)"}, {"measurement": "Number of months a subject was a responder: Zero months (IBS symptoms)", "setting": "[4]", "value": "35 (34) n (%)"}, {"measurement": "Number of subjects who were responders during the three-month treatment period: Adequate relief of IBS symptoms", "setting": "[5]", "value": "69 (47) n (%)"}, {"measurement": "Number of subjects who were responders during the three-month treatment period: Adequate relief of abdominal pain/discomfort", "setting": "[5]", "value": "72 (49) n (%)"}, {"measurement": "Number of subjects who were responders during the three-month treatment period: Adequate relief of abnormal bowel habits", "setting": "[5]", "value": "73 (50) n (%)"}, {"measurement": "Number of months a subject was a responder: One month (Abdominal pain/discomfort)", "setting": "[6]", "value": "15 (10) n (%)"}, {"measurement": "Number of months a subject was a responder: One month (Abnormal bowel habits)", "setting": "[6]", "value": "14 (10) n (%)"}, {"measurement": "Number of months a subject was a responder: One month (IBS symptoms)", "setting": "[6]", "value": "13 (9) n (%)"}, {"measurement": "Number of months a subject was a responder: Three months (Abdominal pain/discomfort)", "setting": "[6]", "value": "59 (40) n (%)"}, {"measurement": "Number of months a subject was a responder: Three months (Abnormal bowel habits)", "setting": "[6]", "value": "57 (39) n (%)"}, {"measurement": "Number of months a subject was a responder: Three months (IBS symptoms)", "setting": "[6]", "value": "51 (35) n (%)"}, {"measurement": "Number of months a subject was a responder: Two months (Abdominal pain/discomfort)", "setting": "[6]", "value": "19 (13) n (%)"}, {"measurement": "Number of months a subject was a responder: Two months (Abnormal bowel habits)", "setting": "[6]", "value": "19 (13) n (%)"}, {"measurement": "Number of months a subject was a responder: Two months (IBS symptoms)", "setting": "[6]", "value": "22 (15) n (%)"}, {"measurement": "Number of months a subject was a responder: Zero months (Abdominal pain/discomfort)", "setting": "[6]", "value": "53 (36) n (%)"}, {"measurement": "Number of months a subject was a responder: Zero months (Abnormal bowel habits)", "setting": "[6]", "value": "56 (38) n (%)"}, {"measurement": "Number of months a subject was a responder: Zero months (IBS symptoms)", "setting": "[6]", "value": "60 (41) n (%)"}, {"measurement": "Number of subjects who were responders during the three-month treatment period: Adequate relief of IBS symptoms", "setting": "[7]", "value": "25 (49) n (%)"}, {"measurement": "Number of subjects who were responders during the three-month treatment period: Adequate relief of abdominal pain/discomfort", "setting": "[7]", "value": "27 (53) n (%)"}]}
